This is an account of results in US8299129B2, “Peptide lipid-containing carrier and method for introducing compound into cells using same” (Fukuoka Prefectural Government, priority 2006, dated 2012).

The test system of data set [1] is Balb/c mouse. The experiment in a line: Introduction of Cy3-labeled siRNA into mouse tissues using peptide lipid, fluorescence microscopy of removed tissues. It is filed as in vivo. The following applies: tail vein injection, Cy3-labeled siRNA complex, 4 hours. The procedure:
(§1) Cy3-labeled siRNA ([…], purchased from Dharmacon) was mixed with 200 μl of 150 mM NaCl solution, 1.3 mM peptide lipid (RE-C12) (16 μl) was mixed with the above-mentioned siRNA solution and the mixture was incubated for 5 min to give peptide lipid—RNA complex. This was injected to Balb/c mouse (15-week-old) from the tail vein. […] Four hours later, the mouse was autopsied and each tissue (heart, lung, liver, kidney, spleen) was removed, which was cut into small pieces and observed with a fluorescence microscope. When peptide lipid was used as a carrier, siRNA could be introduced into each tissue in the body.

Data set [2] concerns Balb/c mouse. Kind of data set: Acute toxicity in mouse after tail vein injection of peptide lipid-RNA complex. It is filed as in vivo. As to conditions: at the concentration tested. As for the experimental part: as §1

Take Arg-Glu-C12 [RE-C12]: the “Introduction efficiency into the liver and spleen” value in the data set on Balb/c mouse [1] is “particularly superior”. Besides, the “evaluation (introduction of siRNA), heart” value in the data set on Balb/c mouse [1] (heart) was 5%. Besides, the “evaluation (introduction of siRNA), kidney” value in the data set with Balb/c mouse [1] (kidney) was 5%. For the same substance, in the data set with Balb/c mouse [1] (liver), the “evaluation (introduction of siRNA), liver” value amounted to 25%. The “evaluation (introduction of siRNA), lung” value in the data set on Balb/c mouse [1] (lung) is on record as 10%. In addition, in the data set on Balb/c mouse [1] (spleen), the “evaluation (introduction of siRNA), spleen” value was found to be 30%. Further, the acute toxicity result in the data set with Balb/c mouse [2] is listed as “acute toxicity was not observed”.
